Results as given in patent US20230167132A1, “FORMS AND COMPOSITIONS OF INHIBITORS OF PLASMA KALLIKREIN” (Takeda Pharmaceutical Company Limited, priority 2020, published 2023).
Values joined by “and” are separate entries in the source; they are usually repeats but may differ in a detail not shown here. Equal values may be shown once.

How the values were obtained:
Format in all cases: physicochemical
[1] = Gravimetric vapour sorption (GVS) analysis; conditions: for XRPD post GVS analysis: change of solid form after GVS; for GVS hygroscopicity: classification in words; for GVS mass increase: between 0 and 90% RH
[2] = Storage for one week at 40° C./75% RH and 25° C./97% RH, XRPD; conditions: for stability under storage: summary of scaled-up solid forms, conditions not restated
[3] = Intrinsic Dissolution Rate (IDR), Sirius inForm; conditions: for IDR Sector 1 average (pH 2.0) / IDR Sector 1 pH 2.0: pH 2.0, 37° C.; for XRPD Analysis Post Dissolution: solid form of disc after IDR analysis; for IDR Sector 1 pH 2.0: individual runs; for sector 1 IDR compared to free base form Compound 1 Form 1 / other forms: pH 2.0, comparison in words
Description: About 40 mg of the sample was compressed in a 6 mm disc recess, under 100 kg for 2 minutes, with greaseproof paper on the compression base, to form nondisintegrating discs. The discs were then plugged with a bung so that only one surface was exposed to the media during analysis and transferred to the Sirius inForm dissolution apparatus. Analysis was performed at 37° C. in 40 mL media (36 mL ISA water, 4 mL 0.1 M Acetate Phosphate Buffer). Dissolution data were collected over 4 pH sectors (pH 2.0, 5.5, 6.5, and 7.4) for a total of 2 hours—30 minutes per sector, with UV spectra collected every 30 seconds. A stir speed of 225 rpm was used with a 10 mm path length probe. The IDR was calculated based on the surface area of the 3/6/8 mm disc recess used (28.3 mm2 surface area). XRPD analysis was performed on all samples, both after compression of the material into the disc recess, and post dissolution analysis to observe any change in form. XRPD diffractograms were collected on the Bruker C2.

[4] = one week (7 days), scaled-up / characterised material
[5] = one week (7 days), scaled-up / characterised material, listed as Form 2
[6] = one week, material isolated from salt/cocrystal screening experiments

With `O=C(NCc1ncn2ccc(Cl)c(F)c12)c1cn(Cc2cn3cc(C4CC4)ccc3n2)nn1` [Amorphous form of Compound 1, N-((7-chloro-8-fluoroimidazo[1,5-a]pyridin-1-yl)methyl)-1-((6-cyclopropylimidazo[1,2-a]pyridin-2-yl)methyl)-1H-1,2,3-triazole-4-carboxamide] the “XRPD post GVS analysis” value [1] was “convert to Form 1”, the “form conversion upon heating” value ([2]; heating to 150° C.) was “convert to Form 1” and the “Storage 25° C./97% RH, XRPD” value [2, 4] was “convert to Form 1”. For the same compound, the “Storage 40° C./75% RH, XRPD” value [2, 4] was “convert to Form 1”.
In the case of `O=C(NCc1ncn2ccc(Cl)c(F)c12)c1cn(Cc2cn3cc(C4CC4)ccc3n2)nn1` [Compound 1 Form 2, N-((7-chloro-8-fluoroimidazo[1,5-a]pyridin-1-yl)methyl)-1-((6-cyclopropylimidazo[1,2-a]pyridin-2-yl)methyl)-1H-1,2,3-triazole-4-carboxamide], the “IDR Sector 1 average (pH 2.0)” value [3] is reported as 290.8 μg/min/cm^2, the “XRPD Analysis Post Dissolution” value [3] is reported as “Conversion to Compound 1 - Form 1” and the “GVS increase in mass” value ([1]; between 80 and 90% RH) is reported as 4%. The “XRPD post GVS analysis” value [1] was “decrease. Mixture of Freebase Patterns 2 & 3”, the “XRPD post GVS analysis” value ([1]; listed as Form 2) was “convert to Form 1” and the GVS hygroscopicity [1] was “Hygroscopic”. For the same compound, the “Storage 25° C./97% RH, XRPD” value [2, 4] was “Mixture of Compound 1 - Form 1, Compound 1 -”, the “Storage 40° C./75% RH, XRPD” value [2, 4] was “Free base, Compound 1 - Form 1” and the “Storage 25° C./97% RH, XRPD” value [2, 5] was “Peaks corresponding to a suspected hydrated phase”. For the same compound, the “Storage 40° C./75% RH, XRPD” value [2, 5] was “convert to Form 1”.
For `O=C(NCc1ncn2ccc(Cl)c(F)c12)c1cn(Cc2cn3cc(C4CC4)ccc3n2)nn1` [Compound 1 Form 3, N-((7-chloro-8-fluoroimidazo[1,5-a]pyridin-1-yl)methyl)-1-((6-cyclopropylimidazo[1,2-a]pyridin-2-yl)methyl)-1H-1,2,3-triazole-4-carboxamide], the GVS mass increase [1] was 0.5%, the “XRPD post GVS analysis” value [1] was “between 0 and 90% RH. Unchanged by XRPD post” and the GVS hygroscopicity [1] was “Slightly hygroscopic”. For the same compound, the “Storage 25° C./97% RH, XRPD” value [2, 4] was “Unchanged by XRPD” and the “Storage 40° C./75% RH, XRPD” value [2, 4] was “Unchanged by XRPD”.
With `O=C(NCc1ncn2ccc(Cl)c(F)c12)c1cn(Cc2cn3cc(C4CC4)ccc3n2)nn1.O=C(O)C[C@H](O)C(=O)O` [Compound 3] the “IDR Sector 1 average (pH 2.0)” value [3] was 1791 μg/min/cm^2, the “IDR Sector 1 pH 2.0” value ([3]; listed as L-malate Pattern 1) was 1569 μg/min/cm^2 and 2013 μg/min/cm^2 and the “sector 1 IDR compared to free base form Compound 1 Form 1 / other forms” value ([3]; listed as Compound 3 Form 1) was “highest IDR”. The “sector 1 IDR compared to free base form Compound 1 Form 1 / other forms” value ([3]; listed as Compound 3 Pattern 1) was “increased sector 1 IDR”, the “XRPD Analysis Post Dissolution” value ([3]; listed as Compound 3 Pattern 1) was “additional peaks observed in XRPD” and the “XRPD Analysis Post Dissolution” value ([3]; listed as L-malate Pattern 1) was “Additional peaks observed”. The GVS mass increase [1] was 0.22%, the “XRPD post GVS analysis” value [1] was “no observed change” and the GVS hygroscopicity ([1]; listed as Compound 3 Pattern 1) was “slightly hygroscopic”. The GVS hygroscopicity ([1]; listed as L-malate) was “reduced hygroscopicity”, the “Storage 25° C./97% RH, XRPD” value [2, 4] was “unchanged by XRPD” and the “Storage 40° C./75% RH, XRPD” value [2, 4] was “unchanged by XRPD”. The “Storage 40° C./75% RH, XRPD” value [2, 6] was “Slight changes” and the stability under storage [2] was “stable under storage”.
In the case of `O=C(NCc1ncn2ccc(Cl)c(F)c12)c1cn(Cc2cn3cc(C4CC4)ccc3n2)nn1.O=C(O)CCC(=O)O` [Compound 4], the “IDR Sector 1 average (pH 2.0)” value [3] is reported as 255.5 μg/min/cm^2, the “IDR Sector 1 pH 2.0” value ([3]; listed as Succinate Pattern 1) is reported as 270.8 μg/min/cm^2 and 240.1 μg/min/cm^2 and the “sector 1 IDR compared to free base form Compound 1 Form 1 / other forms” value [3] is reported as “increased sector 1 IDR”. For the same compound, the “XRPD Analysis Post Dissolution” value ([3]; listed as Compound 4 Pattern 1) was “additional peaks observed in XRPD”, the “XRPD Analysis Post Dissolution” value ([3]; listed as Succinate Pattern 1) was “Additional peaks observed” and the GVS mass increase [1] was 0.16%. The “XRPD post GVS analysis” value [1] was “no observed change”, the GVS hygroscopicity ([1]; listed as Compound 4 Pattern 1) was “non-hygroscopic” and the GVS hygroscopicity ([1]; listed as succinate) was “reduced hygroscopicity”. For the same compound, the “Storage 25° C./97% RH, XRPD” value [2, 4] was “unchanged by XRPD”, the “Storage 40° C./75% RH, XRPD” value [2, 4] was “unchanged by XRPD” and the “Storage 40° C./75% RH, XRPD” value [2, 6] was “unchanged”. The stability under storage [2] was “stable under storage”.
With `O=C(NCc1ncn2ccc(Cl)c(F)c12)c1cn(Cc2cn3cc(C4CC4)ccc3n2)nn1.O=P(O)(O)O` [Compound 5] the “IDR Sector 1 average (pH 2.0)” value [3] was 404.1 μg/min/cm^2, the “IDR Sector 1 pH 2.0” value ([3]; listed as Phosphate Pattern 1) was 364.7 μg/min/cm^2 and 443.4 μg/min/cm^2 and the “sector 1 IDR compared to free base form Compound 1 Form 1 / other forms” value [3] was “increased sector 1 IDR”. For the same compound, the “XRPD Analysis Post Dissolution” value ([3]; listed as Phosphate Pattern 1) was “Partial conversion to Compound 1”, the GVS mass increase [1] was 1.2% and the “XRPD post GVS analysis” value [1] was “no observed change”. For the same compound, the GVS hygroscopicity ([1]; listed as Compound 5 Pattern 1) was “slightly hygroscopic”, the GVS hygroscopicity ([1]; listed as phosphate) was “reduced hygroscopicity” and the “Storage 25° C./97% RH, XRPD” value [2, 4] was “unchanged by XRPD”. For the same compound, the “Storage 40° C./75% RH, XRPD” value [2, 4] was “unchanged by XRPD”, the “Storage 40° C./75% RH, XRPD” value [2, 6] was “unchanged” and the stability under storage [2] was “stable under storage”.
With `O=C(NCc1ncn2ccc(Cl)c(F)c12)c1cn(Cc2cn3cc(C4CC4)ccc3n2)nn1` [Compound 6] the stability under storage [2] was “stable under storage”.
In the case of `O=C(NCc1ncn2ccc(Cl)c(F)c12)c1cn(Cc2cn3cc(C4CC4)ccc3n2)nn1.O=C(O)C(O)C(O)C(=O)O` [Compound 7], the “IDR Sector 1 average (pH 2.0)” value [3] is reported as 656.4 μg/min/cm^2, the “IDR Sector 1 pH 2.0” value ([3]; listed as L-Tartrate Pattern 1) is reported as 647.0 μg/min/cm^2 and 665.7 μg/min/cm^2 and the “XRPD Analysis Post Dissolution” value [3] is reported as “poorly crystalline post analysis”. For the same compound, the GVS mass increase [1] was 3.4%, the “XRPD post GVS analysis” value [1] was “No observed change” and the GVS hygroscopicity ([1]; listed as Compound 7 Pattern 1) was “hygroscopic”. The GVS hygroscopicity ([1]; listed as L-Tartrate Pattern 1) was “Poorly crystalline, hygroscopic”, the GVS hygroscopicity ([1]; listed as L-tartrate) was “hygroscopic” and the “Storage 25° C./97% RH, XRPD” value [2, 4] was “unchanged by XRPD”. The “Storage 40° C./75% RH, XRPD” value [2, 4] was “unchanged by XRPD” and the “Storage 40° C./75% RH, XRPD” value [2, 6] was “unchanged”.
With `O=C(NCc1ncn2ccc(Cl)c(F)c12)c1cn(Cc2cn3cc(C4CC4)ccc3n2)nn1.O=C(O)/C=C/C(=O)O` [Compound 9] the “IDR Sector 1 average (pH 2.0)” value [3] was 78.3 μg/min/cm^2, the “IDR Sector 1 pH 2.0” value ([3]; listed as Fumarate Pattern 1) was 76.8 μg/min/cm^2 and 79.8 μg/min/cm^2 and the “XRPD Analysis Post Dissolution” value ([3]; listed as Compound 9 Pattern 1) was “Additional peaks observed in XRPD”. For the same compound, the “XRPD Analysis Post Dissolution” value ([3]; listed as Fumarate Pattern 1) was “Additional peaks observed”, the GVS mass increase [1] was 0.6% and the “XRPD post GVS analysis” value [1] was “no observed change”. For the same compound, the GVS hygroscopicity ([1]; listed as Compound 9 Pattern 1) was “slightly hygroscopic”, the GVS hygroscopicity ([1]; listed as fumarate) was “reduced hygroscopicity” and the “Storage 25° C./97% RH, XRPD” value [2, 4] was “unchanged by XRPD”. The “Storage 40° C./75% RH, XRPD” value [2, 4] was “unchanged by XRPD”, the “Storage 40° C./75% RH, XRPD” value [2, 6] was “unchanged” and the stability under storage [2] was “stable under storage”.
With `O=C(NCc1ncn2ccc(Cl)c(F)c12)c1cn(Cc2cn3cc(C4CC4)ccc3n2)nn1` [Compound 11] the “Storage 40° C./75% RH, XRPD” value [2, 6] was “unchanged by XRPD”.
For `CS(=O)(=O)O.O=C(NCc1ncn2ccc(Cl)c(F)c12)c1cn(Cc2cn3cc(C4CC4)ccc3n2)nn1` [Mesylate salt—Pattern 1], the “Storage 40° C./75% RH, XRPD” value [2, 6] was “changes to its XRPD pattern with peaks corresponding to Compound 1 Form 1 being present”.
In the case of `CS(=O)(=O)O.O=C(NCc1ncn2ccc(Cl)c(F)c12)c1cn(Cc2cn3cc(C4CC4)ccc3n2)nn1` [Mesylate salt—Pattern 2], the “Storage 40° C./75% RH, XRPD” value [2, 6] is reported as “unchanged”.
In the case of `CS(=O)(=O)O.O=C(NCc1ncn2ccc(Cl)c(F)c12)c1cn(Cc2cn3cc(C4CC4)ccc3n2)nn1` [Mesylate salt—Pattern 3], the “Storage 40° C./75% RH, XRPD” value [2, 6] is reported as “unchanged”.
